Reference: publication PMC10382584, “Macrocyclization of linear molecules by deep learning to facilitate macrocyclic drug candidates discovery” (Nature Communications, 2023)

Key:
Test in all cases: biochemical
Design in all cases: DiscoveRx KINOMEscan competition binding, percent of DMSO control signal at 100 nM
Settings in all cases: read-out: Fig. 4a / Percent Control / Compound 1; percent of DMSO control, competition binding
MLK1 = molecular target: T1, MLK1 (Homo sapiens, UniProt P80192)
T1 construct: gene MAP3K9

MYLK4 = MYLK4 (Homo sapiens, UniProt Q86YV6)
AKT2 = AKT2 (Homo sapiens, UniProt P31751)
PAK1 = PAK1 (Homo sapiens, UniProt Q13153)
CDKL1 = CDKL1 (Homo sapiens, UniProt Q00532)
MTOR = MTOR (Homo sapiens, UniProt P42345)
S6K1 = molecular target: T2, S6K1 (Homo sapiens, UniProt P23443)
T2 construct: gene RPS6KB1

FLT3 = FLT3 (Homo sapiens, UniProt P36888)
PRKCD = PRKCD (Homo sapiens, UniProt Q05655)
PIK4CB = molecular target: T3, PIK4CB (Homo sapiens, UniProt Q9UBF8)
T3 construct: gene PI4KB

EPHA7 = EPHA7 (Homo sapiens, UniProt Q15375)
EPHA3 = EPHA3 (Homo sapiens, UniProt P29320)
CSNK1E = CSNK1E (Homo sapiens, UniProt P49674)
PKN1 = PKN1 (Homo sapiens, UniProt Q16512)
AURKA = AURKA (Homo sapiens, UniProt O14965)
JNK3 = molecular target: T4, JNK3 (Homo sapiens, UniProt P53779)
T4 construct: gene MAPK10

RET(M918T) = RET(M918T) (Homo sapiens, UniProt P07949, M918T)
PIK3CA(E542K) = PIK3CA(E542K) (Homo sapiens, UniProt P42336, E542K)
RET = RET (Homo sapiens, UniProt P07949)
TEC = TEC (Homo sapiens, UniProt P42680)
PRKD3 = PRKD3 (Homo sapiens, UniProt O94806)
FAK = molecular target: T5, FAK (Homo sapiens, UniProt Q05397)
T5 construct: gene PTK2

KIT(V559D) = KIT(V559D) (Homo sapiens, UniProt P10721, V559D)
NEK6 = NEK6 (Homo sapiens, UniProt Q9HC98)
CLK3 = CLK3 (Homo sapiens, UniProt P49761)
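Also: KINOMEscan kinase panel binding assay, signal normalized between DMSO as 100% and a positive control compound as 0%.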

Sequence of AURKA (O14965 whole entry): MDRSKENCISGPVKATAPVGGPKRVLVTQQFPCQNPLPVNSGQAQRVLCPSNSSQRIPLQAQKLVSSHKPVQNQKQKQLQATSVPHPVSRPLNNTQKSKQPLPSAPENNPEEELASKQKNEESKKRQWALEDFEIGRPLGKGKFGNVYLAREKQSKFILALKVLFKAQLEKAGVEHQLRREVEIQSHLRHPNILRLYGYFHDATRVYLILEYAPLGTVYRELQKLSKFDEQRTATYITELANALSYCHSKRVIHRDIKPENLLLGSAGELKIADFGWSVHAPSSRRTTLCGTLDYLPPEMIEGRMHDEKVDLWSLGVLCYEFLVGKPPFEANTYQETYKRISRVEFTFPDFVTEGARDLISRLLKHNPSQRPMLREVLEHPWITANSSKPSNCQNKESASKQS
Sequence of CSNK1E (P49674 whole entry): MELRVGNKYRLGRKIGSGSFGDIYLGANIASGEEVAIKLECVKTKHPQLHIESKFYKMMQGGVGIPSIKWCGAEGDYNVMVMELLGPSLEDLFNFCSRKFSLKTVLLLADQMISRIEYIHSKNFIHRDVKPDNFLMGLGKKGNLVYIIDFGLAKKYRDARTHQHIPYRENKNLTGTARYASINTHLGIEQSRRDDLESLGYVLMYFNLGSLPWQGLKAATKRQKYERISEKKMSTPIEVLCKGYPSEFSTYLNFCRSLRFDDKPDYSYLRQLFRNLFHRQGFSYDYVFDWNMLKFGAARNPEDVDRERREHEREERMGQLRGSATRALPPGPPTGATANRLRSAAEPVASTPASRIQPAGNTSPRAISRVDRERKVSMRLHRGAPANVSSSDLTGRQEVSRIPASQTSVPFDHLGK
Sequence of CDKL1 (Q00532 whole entry): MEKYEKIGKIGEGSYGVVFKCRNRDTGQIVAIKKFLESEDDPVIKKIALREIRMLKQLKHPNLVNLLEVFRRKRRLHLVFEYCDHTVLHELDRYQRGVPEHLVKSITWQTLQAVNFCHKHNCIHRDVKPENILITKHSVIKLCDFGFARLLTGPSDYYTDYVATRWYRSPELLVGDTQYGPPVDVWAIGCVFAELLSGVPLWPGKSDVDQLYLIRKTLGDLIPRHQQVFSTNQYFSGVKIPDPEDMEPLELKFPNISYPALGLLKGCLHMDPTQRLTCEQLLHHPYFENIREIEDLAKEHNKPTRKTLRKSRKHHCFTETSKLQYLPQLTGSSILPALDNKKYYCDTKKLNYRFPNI
Sequence of EPHA3 (P29320 whole entry): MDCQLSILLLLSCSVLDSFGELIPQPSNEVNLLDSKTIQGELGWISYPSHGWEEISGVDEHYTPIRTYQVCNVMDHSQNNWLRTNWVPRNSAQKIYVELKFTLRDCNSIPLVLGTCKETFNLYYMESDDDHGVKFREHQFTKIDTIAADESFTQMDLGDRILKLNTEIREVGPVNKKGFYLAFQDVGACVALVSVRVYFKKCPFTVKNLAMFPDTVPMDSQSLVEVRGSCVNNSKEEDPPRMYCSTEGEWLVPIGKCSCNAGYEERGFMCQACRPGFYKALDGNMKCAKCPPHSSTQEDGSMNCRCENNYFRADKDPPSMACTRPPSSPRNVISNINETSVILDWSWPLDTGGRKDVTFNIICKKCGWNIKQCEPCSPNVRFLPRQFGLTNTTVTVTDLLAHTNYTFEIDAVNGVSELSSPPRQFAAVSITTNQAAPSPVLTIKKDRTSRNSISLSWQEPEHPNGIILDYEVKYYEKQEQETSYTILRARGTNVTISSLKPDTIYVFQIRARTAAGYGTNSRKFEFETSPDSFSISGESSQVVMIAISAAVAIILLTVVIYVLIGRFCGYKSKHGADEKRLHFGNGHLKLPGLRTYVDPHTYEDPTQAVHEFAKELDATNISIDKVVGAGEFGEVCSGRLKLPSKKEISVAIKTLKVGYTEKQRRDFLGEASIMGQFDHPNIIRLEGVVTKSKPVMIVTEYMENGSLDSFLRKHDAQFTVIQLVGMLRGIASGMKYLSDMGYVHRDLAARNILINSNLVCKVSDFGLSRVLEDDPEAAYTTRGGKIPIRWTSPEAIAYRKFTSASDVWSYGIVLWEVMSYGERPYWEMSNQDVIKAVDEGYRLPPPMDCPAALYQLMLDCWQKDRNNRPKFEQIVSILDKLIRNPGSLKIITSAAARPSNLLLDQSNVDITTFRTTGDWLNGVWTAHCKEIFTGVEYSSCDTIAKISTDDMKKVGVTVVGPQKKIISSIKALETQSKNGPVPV
Sequence of CLK3 (P49761 whole entry): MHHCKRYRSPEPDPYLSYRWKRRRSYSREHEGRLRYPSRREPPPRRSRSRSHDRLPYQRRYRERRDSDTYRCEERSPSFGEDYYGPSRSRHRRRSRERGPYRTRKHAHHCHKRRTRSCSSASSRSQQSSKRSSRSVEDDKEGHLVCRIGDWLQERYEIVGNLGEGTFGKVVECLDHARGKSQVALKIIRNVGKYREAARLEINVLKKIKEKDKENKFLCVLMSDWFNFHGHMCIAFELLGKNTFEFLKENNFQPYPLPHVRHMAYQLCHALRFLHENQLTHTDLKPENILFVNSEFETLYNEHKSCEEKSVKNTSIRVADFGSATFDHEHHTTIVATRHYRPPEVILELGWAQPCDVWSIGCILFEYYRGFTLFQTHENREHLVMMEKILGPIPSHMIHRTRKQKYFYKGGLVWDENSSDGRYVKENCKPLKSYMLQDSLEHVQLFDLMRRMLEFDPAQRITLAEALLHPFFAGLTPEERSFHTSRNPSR
Sequence of FLT3 (P36888 whole entry): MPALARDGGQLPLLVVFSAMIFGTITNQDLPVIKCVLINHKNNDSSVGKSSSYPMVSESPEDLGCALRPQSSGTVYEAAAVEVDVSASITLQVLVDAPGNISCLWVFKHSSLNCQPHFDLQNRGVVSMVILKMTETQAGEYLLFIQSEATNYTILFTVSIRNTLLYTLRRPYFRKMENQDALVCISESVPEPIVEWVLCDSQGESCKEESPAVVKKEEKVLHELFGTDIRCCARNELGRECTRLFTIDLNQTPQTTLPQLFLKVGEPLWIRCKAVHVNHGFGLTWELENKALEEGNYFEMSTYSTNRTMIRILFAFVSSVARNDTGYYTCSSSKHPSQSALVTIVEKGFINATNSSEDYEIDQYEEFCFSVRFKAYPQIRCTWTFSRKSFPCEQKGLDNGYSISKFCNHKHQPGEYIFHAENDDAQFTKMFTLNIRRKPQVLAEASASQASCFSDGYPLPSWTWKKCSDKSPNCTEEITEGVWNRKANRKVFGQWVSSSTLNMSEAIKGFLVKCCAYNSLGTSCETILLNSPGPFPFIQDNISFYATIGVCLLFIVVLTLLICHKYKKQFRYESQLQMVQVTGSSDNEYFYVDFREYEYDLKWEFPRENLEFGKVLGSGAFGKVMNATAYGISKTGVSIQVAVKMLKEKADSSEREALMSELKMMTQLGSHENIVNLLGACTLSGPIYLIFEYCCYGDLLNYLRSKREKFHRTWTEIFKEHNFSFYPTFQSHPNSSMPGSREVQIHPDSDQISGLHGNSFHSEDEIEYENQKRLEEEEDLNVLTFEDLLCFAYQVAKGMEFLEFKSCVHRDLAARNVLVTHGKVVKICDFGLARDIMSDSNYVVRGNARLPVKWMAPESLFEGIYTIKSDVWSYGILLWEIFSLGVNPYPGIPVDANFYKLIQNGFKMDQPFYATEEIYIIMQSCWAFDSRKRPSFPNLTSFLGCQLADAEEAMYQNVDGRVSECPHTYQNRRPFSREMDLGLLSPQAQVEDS
Sequence of TEC (P42680 whole entry): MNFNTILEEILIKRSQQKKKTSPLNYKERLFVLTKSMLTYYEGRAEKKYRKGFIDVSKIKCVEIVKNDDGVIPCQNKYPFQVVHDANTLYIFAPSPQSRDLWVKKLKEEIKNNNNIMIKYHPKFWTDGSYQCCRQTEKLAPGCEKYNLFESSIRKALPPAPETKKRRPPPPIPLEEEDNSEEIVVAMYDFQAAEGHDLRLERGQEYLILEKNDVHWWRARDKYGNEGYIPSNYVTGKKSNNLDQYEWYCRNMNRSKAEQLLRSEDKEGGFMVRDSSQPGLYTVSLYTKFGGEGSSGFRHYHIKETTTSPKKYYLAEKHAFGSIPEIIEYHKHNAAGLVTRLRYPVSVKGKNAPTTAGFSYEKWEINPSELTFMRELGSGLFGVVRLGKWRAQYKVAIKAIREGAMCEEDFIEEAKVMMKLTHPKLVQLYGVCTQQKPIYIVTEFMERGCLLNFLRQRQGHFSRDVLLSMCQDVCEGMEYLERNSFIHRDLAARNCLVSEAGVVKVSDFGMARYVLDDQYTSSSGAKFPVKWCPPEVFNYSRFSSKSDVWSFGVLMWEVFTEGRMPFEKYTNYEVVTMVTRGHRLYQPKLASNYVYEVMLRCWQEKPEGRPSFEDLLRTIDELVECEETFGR
Sequence of PRKCD (Q05655 whole entry): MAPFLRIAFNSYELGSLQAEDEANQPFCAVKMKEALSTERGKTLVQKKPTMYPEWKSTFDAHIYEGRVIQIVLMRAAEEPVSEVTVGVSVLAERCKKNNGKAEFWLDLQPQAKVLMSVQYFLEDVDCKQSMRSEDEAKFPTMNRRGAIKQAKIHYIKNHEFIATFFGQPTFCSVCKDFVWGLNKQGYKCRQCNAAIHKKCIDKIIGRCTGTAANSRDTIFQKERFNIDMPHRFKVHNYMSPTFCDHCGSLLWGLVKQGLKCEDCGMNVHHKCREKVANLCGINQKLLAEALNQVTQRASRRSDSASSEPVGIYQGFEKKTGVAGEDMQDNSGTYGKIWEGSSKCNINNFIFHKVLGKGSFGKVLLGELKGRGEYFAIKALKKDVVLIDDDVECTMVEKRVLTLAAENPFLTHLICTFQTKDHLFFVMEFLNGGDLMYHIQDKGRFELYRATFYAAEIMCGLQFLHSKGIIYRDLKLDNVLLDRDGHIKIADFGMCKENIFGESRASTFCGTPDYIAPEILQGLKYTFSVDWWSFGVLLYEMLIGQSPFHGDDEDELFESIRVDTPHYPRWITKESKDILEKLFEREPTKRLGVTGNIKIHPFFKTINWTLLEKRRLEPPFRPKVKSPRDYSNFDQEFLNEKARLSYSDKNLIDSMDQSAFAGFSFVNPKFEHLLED

Cc1cnc2nc1Nc1cccc(c1)COCc1cc(ccc1OCCN1CCCC1)N2 [Compound 1]
remaining binding at 0.1 µM (MLK1): 100% | remaining binding at 0.1 µM (MYLK4): 84% | remaining binding at 0.1 µM (AKT2): 89% | remaining binding at 0.1 µM (PAK1): 100% | remaining binding at 0.1 µM (CDKL1): 86% | remaining binding at 0.1 µM (MTOR): 82% | remaining binding at 0.1 µM (S6K1): 98% | remaining binding at 0.1 µM (FLT3): 36% | remaining binding at 0.1 µM (PRKCD): 100% | remaining binding at 0.1 µM (PIK4CB): 79% | remaining binding at 0.1 µM (EPHA7): 98% | remaining binding at 0.1 µM (EPHA3): 85% | remaining binding at 0.1 µM (CSNK1E): 70% | remaining binding at 0.1 µM (PKN1): 93% | remaining binding at 0.1 µM (AURKA): 38% | remaining binding at 0.1 µM (JNK3): 43% | remaining binding at 0.1 µM (RET(M918T)): 96% | remaining binding at 0.1 µM (PIK3CA(E542K)): 89% | remaining binding at 0.1 µM (RET): 96% | remaining binding at 0.1 µM (TEC): 94% | remaining binding at 0.1 µM (PRKD3): 100% | remaining binding at 0.1 µM (FAK): 95% | remaining binding at 0.1 µM (KIT(V559D)): 51% | remaining binding at 0.1 µM (NEK6): 100% | remaining binding at 0.1 µM (CLK3): 100%
